{"source": "patent US8642087B1", "about": "“Compounds and methods for reducing oxidative stress” (University of Kentucky Research Foundation, priority 2010, dated 2014)", "key": {"HUVECs [1]": {"test_system": "HUVECs", "assay": "H2O2-induced oxidative stress injury to HUVECs, cell viability by MTT assay", "assay_type": "cell-based, human", "conditions": "for cell viability compared to untreated control cells: pre-treatment 2 hrs, then 500 μM H2O2, 24 hrs", "experimental": "To assess the effect of H2O2-induced oxidative stress injury to HUVECs in the presence of PAβAE degradation products, cell viability was measured and used as a marker of the injury to the cells subsequent to exposure to the degradation products of PAβAE and H2O2. […] Cells were exposed to antioxidants at different concentrations and a final H2O2 concentration of 500 μM. 24 hrs later, cell viability was measured using MTT assay as described above."}, "HUVECs [2]": {"test_system": "HUVECs", "assay": "HNE-induced oxidative stress injury to HUVEC monolayer, transendothelial electrical resistance (TEER)", "assay_type": "cell-based, human", "conditions": "20 hours; degradation products 100 μg/mL alone; HNE 30 μM alone", "experimental": "To assess the effect of 4-hydroxy-2-trans-nonenal (HNE)-induced oxidative stress injury to HUVECs in the presence of PAβAE degradation products, transendothelial electrical resistance (TEER) values were measured and used to monitor the permeability and injury of the cells subsequent to exposure to the degradation products of PAβAE and FINE. Briefly, HUVECs were seeded into 24 well plate Transwell inserts (Corning Costar Transwell Plates). Wells were rinsed with HBSS and media replaced every other day. TEER values (EVOM II reader, World Precision Instruments) were monitored every day until resistance stabilization after approximately 7 days. HUVECs were treated with degradation products of PAβAE, including 10% quercetin multiacrylate (QMA) and 10% curcumin multiacrylate (CMA), at a concentration of 100 μg/mL in the cell media for 1 hour. Following prophylactic incubation, and without removing PABAE degradation products, FINE was added to a final concentration 30 μM to induce oxidative injury. TEER was measured before cells were seeded, immediately before addition PABAE degradation products, and 20 hours following FINE incubation, which is consistent with maximum FINE induced injury. Change in TEER was calculated as shown below in Eq. 4. Change in TEER=(Ω20 hr−ΩTranswell insert)/(Ω0 hr−ΩTranswell insert) (4)"}, "[3]": {"test_system": "human umbilical vein endothelial cells (HUVECs)", "conditions": "24 h", "protocol": "(§1) To further examine the properties of the PAβAE hydrogels and their ability to be used as a polymer that is capable of controllably releasing an antioxidant molecule, the cytotoxicity of PAβAE degradation products was measured. In this analysis, human umbilical vein endothelial cells (HUVECs) were first purchased from Lonza (Allendale, N.J.) and cultured in EGM-2 media with 2% fetal bovine serum at 37° C. in a humidified atmosphere of 5% CO2, with HUVECs in passages 3 to 5 then being used. To assess the cytotoxicity of the degradation products, the HUVECs were then treated with degradation products of the PAβAEs at different concentrations and a MTT assay was used to measure cell viability after treating cells with the different concentrations of PAβAE degradation products. Briefly, HUVECs were seeded onto a 96-well plate at a cell density of 35,000 cells/cm^2, and, 24 hrs later, cell media was replaced with treatment solutions. 24 hrs post treatment, treatment solution was removed, cells were washed twice in PBS, and 200 μL of 0.5 mg/ml MTT solution in cell media was added to each well. The 96-well plate was then incubated at 37° C. for 12 hrs and the cell media was gently removed from the wells. 100 μL of DMSO was added to each well to dissolve the formazan product. The absorbance intensity was recorded, at 570 nm for formazan and at 690 for background, using a Cary-50 Bio UV-Visible spectrophotometer equipped with a Cary 50 MPR microplate reader (Varian, Santa Clara, Calif.).\n(§2) PAβAE degradation products were then freeze dried and dissolved in DMSO at a concentration of 100 mg/ml. These concentrated DMSO solutions were then used to prepare fresh dilute solutions of PAβAE degradation products in cell media. Cells were treated with these PAβAE solutions for their cytotoxicity and their effect on cellular oxidative stress levels. To prepare quercetin and curcumin solutions, antioxidants were dissolved in DMSO at a concentration of 10 mg/ml and diluted in cell media."}, "HUVECs [4]": {"test_system": "HUVECs", "conditions": "literature, cited from earlier work"}, "in vitro": {"assay": "in vitro", "conditions": "human", "protocol": "as §1, §2"}, "[5]": {"test_system": "human normal liver cells L-02", "conditions": "literature; cited from earlier work"}}}
{"smiles": "OO", "note": "[H2O2, hydrogen peroxide]", "values": [{"measurement": "viability at 500 µM", "setting": "HUVECs [1]; Homo sapiens, HUVEC, 500 μM H2O2 only, 24 hrs, read-out: cell viability compared to untreated control cells", "value": 72.9, "unit": "%"}]}
{"smiles": "CCCCCC(O)/C=C/C=O", "note": "(stereo not drawn) [HNE, 4-hydroxy-2-trans-nonenal]", "values": [{"measurement": "Change in TEER compared to the TEER measurement at 0 hours", "setting": "HUVECs [2]", "value": "75±2"}]}
{"smiles": "COc1cc(/C=C/C(=O)CC(=O)/C=C/c2ccc(O)c(OC)c2)ccc1O", "note": "[curcumin]", "values": [{"measurement": "cell viability compared to untreated control cells", "setting": "HUVECs [1]", "value": "57.7 ± 1.6"}, {"measurement": "cell death", "setting": "[3]; 5 μg/ml", "value": 40, "unit": "%"}, {"measurement": "previously reported IC50 value for HUVECs", "setting": "HUVECs [4]", "value": 10.8, "unit": "µg/mL"}, {"measurement": "IC50 at 24 h", "setting": "in vitro", "value": 6.8, "unit": "µg/mL"}]}
{"smiles": "O=c1c(O)c(-c2ccc(O)c(O)c2)oc2cc(O)cc(O)c12", "note": "[quercetin, Quercetin]", "values": [{"measurement": "cell viability compared to untreated control cells", "setting": "HUVECs [1]", "value": "101.13 ± 3.8"}, {"measurement": "cytotoxicity (in words)", "setting": "[3]", "value": "toxicity to HUVECs was note observed up to a concentration of 100 μg/ml"}, {"measurement": "previously reported IC50 value for HUVECs", "setting": "HUVECs [4]", "value": 18.4, "unit": "µg/mL"}, {"measurement": "IC50", "setting": "HUVECs [4]; read-out: previously reported IC50 value for HUVECs", "value": 61, "unit": "µM"}, {"measurement": "IC50", "setting": "[5]", "value": 113, "unit": "µM"}]}
